“Also recorded” adds a separate entry of the source.
Experiments:
[1] = Evaluation of solubility and gelling ability (critical gelation concentration, sample tube inversion method); type: physicochemical
Experimental: The amide alcohol and each liquid were heated and mixed, and the critical gelation concentration was measured by sample tube inversion method.
Sample tube used: used tube: Maruemu screw tube No. 7 (trunk diameter 35 mm, total length 78 mm)

[2] = Solubility of glycerin with various alcohols

Row | Structure (SMILES) | solubility and gelling ability ([1]; Ethanol) | solubility and gelling ability ([1]; Glycerin) | solubility and gelling ability ([1]; Octyldodecanol) | solubility and gelling ability ([1]; Water) | solubility and gelling ability ([1]; Octyldodecyl myristate) | solubility and gelling ability ([1]; Squalane) | solubility and gelling ability ([1]; Triethylhexanoin) | solubility with glycerin (in words) [2] | behaviour with glycerin (in words) ([1]; Glycerin) | behaviour with water (in words) ([1]; Water) | behaviour with ester oil (in words) [1] | concentration for thickening ([1]; Glycerin) | behaviour with glycerin (in words) ([1]; Glycerin, listed as 4HN CHBA) | concentration for thickening ([1]; Octyldodecanol)
1 | CCCCCCCC/C=C\CCCCCCCCNC(=O)CCCO [4HN-OLBA, 4-hydroxy-N-oleyl, butyramide] | S | I | S | I | – | – | – | – | – | – | – | – | – | –
2 | CCCCC(CC)CNC(=O)CCCO (centres unmarked) [4HN-EHBA, 4-hydroxy-N-2-ethylhexyl, butyramide] | S | S | S | I | S | I | I | can be dissolved | – | – | – | – | – | –
3 | CCCCCCCCCCCCNC(=O)CCCO [4HN-LBA, 4-hydroxy-N-lauryl, butyramide] | S | – | – | – | – | – | – | – | gelled | emulsification-gelled | gelled | – | – | –
4 | CCCCCCCCCCCCNC(=O)CCCCCO [6HN-LHA, 6-hydroxy-N-lauryl, hexylamide] | S | I | – | I | – | – | – | – | – | – | – | – | – | –
5 | CCCCCCCCCCCCCCNC(=O)CCCO [4HN-MBA, 4-hydroxy-N-myristyl, butyramide] | S | I | – | – | – | – | – | – | – | – | – | – | – | –
6 | CCCCCCCCNC(=O)CCCO [4HN-OBA, 4-hydroxy-N-octyl, butyramide] | S | – | S | S | – | I | – | – | gelled; also recorded: thickening/gelation | solubility in water | gelled | – | – | –
7 | CCCCCCCCCCCCCCCCCCNC(=O)CCCO [4HN-STBA, 4-hydroxy-N-stearyl, butyramide] | I | I | – | I | – | – | – | – | – | – | – | – | – | –
8 | O=C(CCCO)NC1CCCCC1 [4HN-CHBA, 4-hydroxy-N-cyclohexyl, butyramide] | S | – | – | S | I | I | I | – | thickened | solubility in water | – | (≥12 wt %) | thickening/gelation | (≥18 wt %)
